Measured values reported in US20040014681A1, “Method for treating dermatoses and tissue damage” (priority 2002, published 2004).

How the values were obtained:
[1] = Case examples: topical treatment of contact dermatitis to jewelry; type: in vivo, human; conditions: Case 5, adult, recurring red oozing dermatitis under gold and stone ring
Experimental: (§1) The following non-limiting case examples are presented to further illustrate the present invention: In the following examples, unless otherwise stated, the ointment contained about 0.15-0.22 mg of topiramate per ml of ointment (Thermaderm, an aqueous vanishing cream emollient) and sodium bicarbonate in an amount to provide a pH of about 7.8-8.
Case 5: Contact dermatitis to jewelry. […] This was usually treated with topical 0.1% mometasone furoate once daily for six or seven days with clearing of the lesion.
Case 6. Contact dermatitis to jewelry. An adult presented with a recurring red oozing dermatitis under a tight fitting silver/gold stone bracelet on their left wrist occurring especially during the winter and usually treated with topical corticosteroids over a five day period. Topiramate cream/ointment was applied daily with complete clearing in two days.

[2] = adjunctive therapy or monotherapy; cited from earlier work
[3] = several rodent models of epilepsy and an animal model of kindled epilepsy; cited from earlier work
[4] = Case examples: topical treatment of poison ivy lesions; type: in vivo, human; conditions: Case 4, young person, poison ivy lesions on back, once a day application
Experimental: as §1
Case 3: Poison Ivy—A young child with known sensitivity to poison ivy presents with typical raised red vesicular lesions on their hands and left forearm. Topiramate cream/ointment was applied daily with the disappearance of lesions after 3 days.
Case 4: Poison Ivy—A young person having a history of extreme sensitivity to poison ivy presented with the entire right lower quadrant of their back covered with red, vesicular, and oozing lesions. These lesions cleared after four days of once a day application of Topiramate, at which time the application was stopped, leaving the skin dry with dead scales/scabs. The patient was seen four days later in this condition and began to apply Topirmate cream/lotion ever other day with complete resolution over the next six days.

Structure (SMILES): C[C@@H]1C[C@H]2[C@@H]3CCC4=CC(=O)C=C[C@]4(C)[C@@]3(Cl)[C@@H](O)C[C@]2(C)[C@@]1(OC(=O)c1ccco1)C(=O)CCl [mometasone furoate]
- time until clearing of the lesion [1]: six or seven

Structure (SMILES): CC1(C)O[C@@H]2[C@@H](CO[C@@]3(COS(N)(=O)=O)OC(C)(C)O[C@@H]23)O1 [topiramate, 2,3:4,5-bis-O-(1-methylethylidence)-β-D-fructopyranose sulfamate]
- efficacy in clinical trials of human epilepsy [2]: effective as adjunctive therapy or as monotherapy
- block of seizures [3]: effectively block seizures
- time until lesions cleared [4]: four
